In patent US5663162A, “Cephem derivatives” (priority 1993, dated 1997):
Values after ≈ are worked out from the molar mass of the structure shown. Like-named read-outs stand apart in the source and are kept apart here.

Key:
Assay in all cases: Antibacterial activity test, MIC by two-fold dilution method
[1] = tested on: C. freundii GN346/16; format: cell-based; details: Citrobacter freundii
Procedure: (§1) The measurement was carried out in the following manner: 10^6 CFU/ml of a bacterium to be tested was inoculated on a Medium N for disc susceptibility test (manufactured by Nissui Pharmaceutical Co., Ltd.), and cultivated at 35° C. for 18 to 20 hours.

[2] = tested on: E. cloacae G-0008; format: cell-based; details: Enterobacter cloacae
Procedure: as §1

[3] = tested on: E. coli NIHJ JC-2; format: cell-based; details: Escherichia coli
Procedure: as §1

[4] = tested on: K. pneumoniae PC1602; format: cell-based; details: Klebsiella pneumoniae
Procedure: as §1

[5] = tested on: M. morganii 1510/S-1; format: cell-based; details: Morganella morganii
Procedure: as §1

[6] = tested on: P. aeruginosa E-2; format: cell-based; details: Pseudomonas aeruginosa
Procedure: as §1

[7] = tested on: P. aeruginosa GN10362; format: cell-based; details: Pseudomonas aeruginosa
Procedure: as §1

[8] = tested on: P. vulgaris GN76; format: cell-based; details: Proteus vulgaris
Procedure: as §1

[9] = tested on: S. Aureus 209P JC-1; format: cell-based; details: Staphylococcus aureus, read-out: Minimum Inhibition Concentration
Procedure: as §1

[10] = tested on: S. epidermidis ATCC14990; format: cell-based; details: Staphylococcus epidermidis
Procedure: as §1

[11] = tested on: S. marcescens No. 1; format: cell-based; details: Serratia marcescens
Procedure: as §1

[12] = tested on: S. Aureus 126; format: cell-based, Staphylococcus aureus (methicillin-resistant, MRSA); details: Staphylococcus aureus, read-out: Minimum Inhibition Concentration
Procedure: as §1

[13] = tested on: S. Aureus 133; format: cell-based, Staphylococcus aureus (methicillin-resistant, MRSA); details: Staphylococcus aureus, read-out: Minimum Inhibition Concentration
Procedure: as §1

[14] = C. freundii GN346/16, 10^6 CFU/ml, 35° C., 18 to 20 hours, read-out: Minimum Inhibition Concentration
[15] = G0008, E. cloacae G-0008, 10^6 CFU/ml, 35° C., 18 to 20 hours, read-out: Minimum Inhibition Concentration
[16] = NIHJJC2, E. coli NIHJ JC-2, 10^6 CFU/ml, 35° C., 18 to 20 hours, read-out: Minimum Inhibition Concentration
[17] = K. pneumoniae PC1602, 10^6 CFU/ml, 35° C., 18 to 20 hours, read-out: Minimum Inhibition Concentration
[18] = 1510/S1, M. morganii 1510/S-1, 10^6 CFU/ml, 35° C., 18 to 20 hours, read-out: Minimum Inhibition Concentration
[19] = E2, read-out: Minimum Inhibition Concentration
[20] = GN10362, read-out: Minimum Inhibition Concentration
[21] = P. vulgaris GN76, 10^6 CFU/ml, 35° C., 18 to 20 hours, read-out: Minimum Inhibition Concentration
[22] = S. Aureus 209P JC-1, 10^6 CFU/ml, 35° C., 18 to 20 hours
[23] = S. epidermidis ATCC14990, 10^6 CFU/ml, 35° C., 18 to 20 hours, read-out: Minimum Inhibition Concentration
[24] = S. marcescens No. 1, 10^6 CFU/ml, 35° C., 18 to 20 hours, read-out: Minimum Inhibition Concentration
[25] = S. Aureus 126 (MRSA), 10^6 CFU/ml, 35° C., 18 to 20 hours
[26] = S. Aureus 133 (MRSA), 10^6 CFU/ml, 35° C., 18 to 20 hours
[27] = E2, P. aeruginosa E-2, 10^6 CFU/ml, 35° C., 18 to 20 hours, read-out: Minimum Inhibition Concentration
[28] = P. aeruginosa GN10362, 10^6 CFU/ml, 35° C., 18 to 20 hours, read-out: Minimum Inhibition Concentration
[29] = ATCC14990, read-out: Minimum Inhibition Concentration

Structure (SMILES)	MIC [1, 14] [µg/mL]	MIC [2, 15] [µg/mL]	MIC [3, 16] [µg/mL]	MIC [4, 17] [µg/mL]	MIC [5, 18] [µg/mL]	MIC [6, 19] [µg/mL]	MIC [7, 20] [µg/mL]	MIC [8, 21] [µg/mL]	MIC [9, 22] [µg/mL]	MIC [10, 23] [µg/mL]	MIC [11, 24] [µg/mL]	MIC [12, 25] [µg/mL]	MIC [13, 26] [µg/mL]	MIC [6, 27] [µg/mL]	MIC [7, 28] [µg/mL]	MIC ([13]; MRSA) [µg/mL]	MIC ([9]; 209P) [µg/mL]	MIC [10, 29] [µg/mL]	also measured
CO/N=C(\C(=O)N[C@@H]1C(=O)N2C(C(=O)[O-])=C(C[n+]3cc4scc(C(N)=O)n4c3)CS[C@H]12)c1nsc(N)n1 [Example 44, (6R,7R)-7-[(Z)-2-(5-Amino-1,2,4-thiadiazol-3-yl)-2-methoxyiminoacetamide]-3-(3-carbamoylimidazo[5,1-b]thiazolium-6-yl)methyl-3-cephem-4-carboxylate]	0.1 (≈ 0.177 µM)	0.05 (≈ 0.0887 µM)	≤ 0.025	≤ 0.025	0.05 (≈ 0.0887 µM)	1.56 (≈ 2.77 µM)	1.56 (≈ 2.77 µM)	0.2 (≈ 0.355 µM)	0.78 (≈ 1.38 µM)	0.78 (≈ 1.38 µM)	0.05 (≈ 0.0887 µM)	25 (≈ 44.4 µM)	12.5 (≈ 22.2 µM)	–	–	–	–	–	–
Nc1nc(/C(=N/OCF)C(=O)N[C@@H]2C(=O)N3C(C(=O)[O-])=C(C[n+]4cc5sccn5c4[C@H](CO)NC=O)CS[C@H]23)ns1 [Example 164, (6R,7R)-7-[(Z)-2-(5-amino-1,2,4-thiadiazol-3-yl)-2-fluoromethoxyiminoacetamido]-3-[5-((R)-1-formylamino-2-hydroxyethyl]imidazo[5,1-b]thiazolium-6-yl)methyl-3-cephem-4-carboxylate]	≤ 0.025	0.05 (≈ 0.0799 µM)	≤ 0.025	≤ 0.025	≤ 0.025	–	–	0.2 (≈ 0.32 µM)	0.78 (≈ 1.25 µM)	0.78 (≈ 1.25 µM)	≤ 0.025	–	–	0.78 (≈ 1.25 µM)	0.78 (≈ 1.25 µM)	6.25 (≈ 9.99 µM)	–	–	MIC ([12]; MRSA): 6.25 µg/mL (≈ 9.99 µM)
Nc1nc(/C(=N/OCCF)C(=O)N[C@@H]2C(=O)N3C(C(=O)[O-])=C(C[n+]4cc5sccn5c4)CS[C@H]23)ns1 [Example 133, (6R,7R)-7-[(Z)-2-(5-Amino-1,2,4-thiadiazol-3-yl)-2-(2-fluoroethoxyimino)acetamide]3-cephem-4-carboxylate]	0.1 (≈ 0.181 µM)	≤ 0.025	≤ 0.025	≤ 0.025	≤ 0.025	–	–	0.2 (≈ 0.362 µM)	–	–	≤ 0.025	12.5 (≈ 22.6 µM)	–	0.78 (≈ 1.41 µM)	0.78 (≈ 1.41 µM)	6.25 (≈ 11.3 µM)	0.39 (≈ 0.706 µM)	0.39 (≈ 0.706 µM)	–
CC(C)(O/N=C(\C(=O)N[C@@H]1C(=O)N2C(C(=O)[O-])=C(C[n+]3ccccc3)CS[C@H]12)c1csc(N)n1)C(=O)O [CAZ, Ceftazidime, reference compound]	–	–	–	–	–	1.56 (≈ 2.85 µM)	1.56 (≈ 2.85 µM)	–	–	–	–	> 100	100 (≈ 183 µM)	–	–	–	6.25 (≈ 11.4 µM)	6.25 (≈ 11.4 µM)	MIC ([1]; GN346, read-out: Minimum Inhibition Concentration): 0.39 µg/mL (≈ 0.714 µM); MIC ([2]; G0008, read-out: Minimum Inhibition Concentration): 0.2 µg/mL (≈ 0.366 µM); MIC ([3]; NIHJJC2, read-out: Minimum Inhibition Concentration): 0.39 µg/mL (≈ 0.714 µM); MIC ([4]; PC1602, read-out: Minimum Inhibition Concentration): 0.1 µg/mL (≈ 0.183 µM); MIC ([5]; 1510/S1, read-out: Minimum Inhibition Concentration): 0.2 µg/mL (≈ 0.366 µM); MIC ([8]; GN76, read-out: Minimum Inhibition Concentration): 0.05 µg/mL (≈ 0.0915 µM); MIC ([11]; NO.1, read-out: Minimum Inhibition Concentration): 0.05 µg/mL (≈ 0.0915 µM)
CO/N=C(\C(=O)N[C@@H]1C(=O)N2C(C(=O)[O-])=C(C[n+]3cccc4c3CCC4)CS[C@H]12)c1csc(N)n1 [CPR, Cefpirome, reference compound]	0.05 (≈ 0.0972 µM)	0.05 (≈ 0.0972 µM)	0.05 (≈ 0.0972 µM)	0.05 (≈ 0.0972 µM)	≤ 0.025	–	–	0.2 (≈ 0.389 µM)	0.2 (≈ 0.389 µM)	–	≤ 0.025	50 (≈ 97.2 µM)	–	3.13 (≈ 6.08 µM)	3.13 (≈ 6.08 µM)	6.25 (≈ 12.1 µM)	–	0.39 (≈ 0.758 µM)	–
